# Assay results: ChEMBL document CHEMBL1201862, “PubChem BioAssay data set” (2004)
# Calls of active or inactive are those of the source.
# Experiments:
# [1] = viability of PTEN-deleted HCT116 cells – cell-based, HCT116 PTEN knockout, dose response (AID 1047); format: functional;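 further: HCT116 colon tumor cells with PTEN knocked out; cells exposed to compound for 60 hours before readout; potency for loss of cell viability measured by luminescence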
# [2] = viability of HCT116 lacking mutant beta-catenin – cell-based, human colon tumor, dose response (AID 1045); format: functional;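 further: HCT116 colon tumor cells with beta catenin knocked out; cells exposed to compound for 60 hours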
# [3] = Luminescence Cell-Based Dose Response HTS to Identify Inhibitors of 5'UTR Stem-Loop Driven Prion Protein mRNA Translation in H4 Neuroglioblastoma Cells. [Related pubchem assays: 1827 (Project Summary), 1813 (Primary HTS)]; format: functional
# [4] = alpha-synuclein stem-loop luciferase translation blockers – H4 neuroglioma cells, luminescence, confirmation (AID 1988); format: functional, cell-based
# cells = format: functional
# [5] = luciferase reporter signal suppression in cells – H4 neuroglioma cells, luminescence, dose response (AID 1990); format: functional, cell-based
# Cytochrome P450 2C9 = Cytochrome P450 2C9 (Homo sapiens, UniProt P11712)
# Cytochrome P450 2C9, sequence (P11712 whole entry): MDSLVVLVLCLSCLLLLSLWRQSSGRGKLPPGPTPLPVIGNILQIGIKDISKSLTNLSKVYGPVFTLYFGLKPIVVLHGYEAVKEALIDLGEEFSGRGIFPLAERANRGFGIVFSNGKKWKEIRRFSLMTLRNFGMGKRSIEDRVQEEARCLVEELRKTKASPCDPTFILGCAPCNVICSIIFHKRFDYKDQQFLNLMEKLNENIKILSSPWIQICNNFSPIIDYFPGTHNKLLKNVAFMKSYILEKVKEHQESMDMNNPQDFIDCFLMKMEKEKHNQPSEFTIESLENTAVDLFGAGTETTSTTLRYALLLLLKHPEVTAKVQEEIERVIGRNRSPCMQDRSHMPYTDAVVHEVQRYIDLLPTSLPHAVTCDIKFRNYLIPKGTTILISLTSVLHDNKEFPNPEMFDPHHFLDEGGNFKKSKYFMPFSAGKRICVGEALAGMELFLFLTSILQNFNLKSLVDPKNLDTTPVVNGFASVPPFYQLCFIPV
# [6] = reduction of Shn3 3'UTR-driven luciferase in osteoblasts – cell-based, Clone20 osteoblasts, firefly luciferase, cherry-picked, dose response (AID 624132); format: functional;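 further: firefly luciferase luminescence from reporter carrying the Shn3 3'UTR in osteoblasts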
# [7] = loss of viability in HepG2 cells – cell-based, CellTiter-Glo, cherry-picked, cytotoxicity control for Shn3 inhibitor project, dose response (AID 624134); format: functional
# [8] = target: T1, Ubiquitin-conjugating enzyme E2 N (Homo sapiens, UniProt P61088); format: functional;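 further: Dose-response confirmation in a TR-FRET assay detecting UBC13-driven polyubiquitin chain formation, inhibition measured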
# T1 sequence (P61088 whole entry): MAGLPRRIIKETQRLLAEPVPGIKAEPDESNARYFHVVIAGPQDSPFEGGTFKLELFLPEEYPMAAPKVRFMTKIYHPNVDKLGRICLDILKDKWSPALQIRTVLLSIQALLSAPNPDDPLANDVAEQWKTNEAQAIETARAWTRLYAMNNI
# [9] = non-specific 3'UTR reporter inhibition in Clone20-Shn3RL – cell-based, Renilla luciferase, cherry-picked, counter-screen for Shn3 inhibitor project, dose response (AID 624133); format: functional
# BJ [10] = assay: cells; format: functional, cell-based; conditions: Homo sapiens
# [11] = DRD fibroblast viability loss – cell-based, non-viral oncogenic, luminescence, dose response (AID 1934); format: functional; conditions: Homo sapiens
# BJ [12] = assay: BJ-TERT fibroblast viability loss – cell-based, RAS-independent, luminescence, dose response (AID 1933); format: functional; conditions: Homo sapiens
# BJ [13] = assay: BJ-TERT-LT-ST fibroblast viability loss – cell-based, RAS-independent, luminescence, dose response (AID 1935); format: functional; conditions: Homo sapiens;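 further: BJ fibroblasts immortalized with TERT plus LT and ST oncogenes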
# Cytochrome P450 3A4 = Cytochrome P450 3A4 (Homo sapiens, UniProt P08684);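 further: CYP3A4 tested as one member of a cytochrome P450 panel screen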
# Cytochrome P450 3A4, sequence (P08684 whole entry): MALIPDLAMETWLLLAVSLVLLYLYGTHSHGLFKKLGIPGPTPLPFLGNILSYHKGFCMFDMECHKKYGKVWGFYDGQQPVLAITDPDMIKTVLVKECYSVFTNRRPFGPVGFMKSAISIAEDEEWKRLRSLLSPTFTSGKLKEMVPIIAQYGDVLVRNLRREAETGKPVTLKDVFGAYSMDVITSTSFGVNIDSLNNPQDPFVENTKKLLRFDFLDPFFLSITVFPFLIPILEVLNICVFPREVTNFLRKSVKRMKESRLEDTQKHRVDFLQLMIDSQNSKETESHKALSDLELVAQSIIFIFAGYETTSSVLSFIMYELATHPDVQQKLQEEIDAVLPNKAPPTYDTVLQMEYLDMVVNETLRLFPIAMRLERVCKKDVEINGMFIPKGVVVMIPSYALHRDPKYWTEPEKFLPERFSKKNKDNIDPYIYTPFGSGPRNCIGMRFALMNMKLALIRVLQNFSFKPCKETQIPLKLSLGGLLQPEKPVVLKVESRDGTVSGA
# [14] = Luminescence Cell-Based Dose Confirmation HTS to Identify Inhibitors of Platelet Dense Granule Release. [Related pubchem assays: 1663 (Primary HTS), 1678 (Summary of Project)]; format: functional
# [15] = target: Luciferin 4-monooxygenase (Photinus pyralis, UniProt P08659); assay: inhibition of purified Photinus pyralis luciferase – biochemical, luminescence, dose response (AID 1891)
# Luciferin 4-monooxygenase, sequence (P08659 whole entry): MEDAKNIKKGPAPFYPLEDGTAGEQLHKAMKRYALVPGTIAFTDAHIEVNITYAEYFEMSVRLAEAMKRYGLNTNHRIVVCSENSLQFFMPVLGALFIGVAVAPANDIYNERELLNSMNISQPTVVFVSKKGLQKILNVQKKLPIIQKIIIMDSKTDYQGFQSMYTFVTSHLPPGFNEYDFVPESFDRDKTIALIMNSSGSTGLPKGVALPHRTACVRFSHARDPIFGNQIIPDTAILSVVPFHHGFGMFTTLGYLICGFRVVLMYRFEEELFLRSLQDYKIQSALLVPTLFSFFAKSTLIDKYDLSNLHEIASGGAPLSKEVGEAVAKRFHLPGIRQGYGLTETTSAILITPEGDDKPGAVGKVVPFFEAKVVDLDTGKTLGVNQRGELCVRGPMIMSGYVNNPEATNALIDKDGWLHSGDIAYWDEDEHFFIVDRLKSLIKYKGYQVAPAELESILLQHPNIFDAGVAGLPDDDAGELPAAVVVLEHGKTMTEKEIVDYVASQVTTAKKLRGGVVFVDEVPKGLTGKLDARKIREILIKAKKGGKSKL
# [16] = Luminescence Cell-Based Dose Retest to Confirm Inhibitors of Cancer Stem Cells. [Related pubchem assays (depositor defined):AID2717, AID2721]; format: functional; conditions: Homo sapiens
# [17] = viability of uninfected HEp-2 cells – cell-based, HTS, cytotoxicity control for RSV inhibitor project, dose response (AID 2410); format: functional; conditions: human respiratory syncytial virus
# Genome polyprotein = Genome polyprotein (dengue virus type 2, UniProt P29990); assay: flavivirus cap methylation enzyme inhibition – biochemical, confirmation dose response, primary screen (AID 588689); format: functional
# Genome polyprotein, sequence (P29990 2492-3391 limits assumed): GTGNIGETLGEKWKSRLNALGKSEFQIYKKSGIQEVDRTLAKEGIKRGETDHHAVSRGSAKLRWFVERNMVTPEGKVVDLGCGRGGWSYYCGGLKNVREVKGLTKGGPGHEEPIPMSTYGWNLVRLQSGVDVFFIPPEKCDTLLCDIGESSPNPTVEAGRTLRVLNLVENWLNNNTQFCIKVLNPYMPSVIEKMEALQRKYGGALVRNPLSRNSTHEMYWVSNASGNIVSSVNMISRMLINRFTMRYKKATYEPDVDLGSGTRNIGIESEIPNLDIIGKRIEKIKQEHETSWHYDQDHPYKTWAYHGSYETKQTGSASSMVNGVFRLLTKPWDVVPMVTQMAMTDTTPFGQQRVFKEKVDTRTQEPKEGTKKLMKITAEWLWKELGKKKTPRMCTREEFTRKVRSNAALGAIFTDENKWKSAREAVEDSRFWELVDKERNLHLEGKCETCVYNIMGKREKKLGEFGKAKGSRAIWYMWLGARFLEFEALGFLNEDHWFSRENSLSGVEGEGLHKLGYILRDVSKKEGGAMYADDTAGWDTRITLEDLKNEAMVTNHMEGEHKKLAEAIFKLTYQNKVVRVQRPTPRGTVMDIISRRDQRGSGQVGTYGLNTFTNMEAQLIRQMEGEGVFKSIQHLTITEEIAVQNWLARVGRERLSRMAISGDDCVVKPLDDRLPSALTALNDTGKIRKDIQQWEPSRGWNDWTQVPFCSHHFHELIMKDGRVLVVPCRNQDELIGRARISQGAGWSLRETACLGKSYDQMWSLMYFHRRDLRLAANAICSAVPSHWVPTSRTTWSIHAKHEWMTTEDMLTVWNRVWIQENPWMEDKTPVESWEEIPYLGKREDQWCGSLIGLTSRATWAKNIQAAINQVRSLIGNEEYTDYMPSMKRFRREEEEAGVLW
# Aminopeptidase N = target: T2, Aminopeptidase N (Plasmodium falciparum FcB1/Columbia, UniProt O96935); assay: malaria alanyl aminopeptidase activity blockers – biochemical, fluorogenic H-Leu-NHMec substrate, 1536-well (AID 1445); set-up: species or system Plasmodium falciparum 3D7, 3D7
# T2 sequence (O96935 whole entry): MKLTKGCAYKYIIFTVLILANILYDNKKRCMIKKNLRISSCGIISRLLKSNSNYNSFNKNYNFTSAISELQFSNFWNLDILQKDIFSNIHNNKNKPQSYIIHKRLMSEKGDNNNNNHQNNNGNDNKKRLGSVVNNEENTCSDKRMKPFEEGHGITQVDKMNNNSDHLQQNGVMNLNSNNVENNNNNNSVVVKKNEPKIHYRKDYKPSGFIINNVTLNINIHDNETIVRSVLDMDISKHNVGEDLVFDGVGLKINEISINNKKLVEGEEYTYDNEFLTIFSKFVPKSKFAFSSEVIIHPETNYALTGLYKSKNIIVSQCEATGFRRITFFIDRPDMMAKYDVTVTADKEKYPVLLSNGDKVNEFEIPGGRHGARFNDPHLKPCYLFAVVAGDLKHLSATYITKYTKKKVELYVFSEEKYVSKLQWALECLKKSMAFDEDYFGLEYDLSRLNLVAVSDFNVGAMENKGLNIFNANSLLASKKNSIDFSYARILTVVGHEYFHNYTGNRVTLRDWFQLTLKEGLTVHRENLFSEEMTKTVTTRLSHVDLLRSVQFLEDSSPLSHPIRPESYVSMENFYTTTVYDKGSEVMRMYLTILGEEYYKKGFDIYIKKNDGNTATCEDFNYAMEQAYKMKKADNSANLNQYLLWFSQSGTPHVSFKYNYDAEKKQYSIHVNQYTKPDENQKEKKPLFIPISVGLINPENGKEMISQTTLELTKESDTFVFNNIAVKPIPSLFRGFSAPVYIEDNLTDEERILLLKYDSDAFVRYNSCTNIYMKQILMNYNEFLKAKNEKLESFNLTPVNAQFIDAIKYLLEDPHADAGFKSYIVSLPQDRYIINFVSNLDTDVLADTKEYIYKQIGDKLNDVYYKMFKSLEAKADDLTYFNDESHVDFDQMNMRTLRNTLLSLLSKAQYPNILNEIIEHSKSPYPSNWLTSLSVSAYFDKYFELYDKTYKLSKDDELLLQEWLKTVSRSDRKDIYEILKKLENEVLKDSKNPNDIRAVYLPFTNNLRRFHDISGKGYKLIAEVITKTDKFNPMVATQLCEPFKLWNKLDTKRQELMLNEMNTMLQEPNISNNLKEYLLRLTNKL
# Cytochrome P450 2D6 = Cytochrome P450 2D6 (Homo sapiens, UniProt P10635);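 further: CYP2D6 member of a cytochrome P450 panel assay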
# Cytochrome P450 2D6, sequence (P10635 whole entry): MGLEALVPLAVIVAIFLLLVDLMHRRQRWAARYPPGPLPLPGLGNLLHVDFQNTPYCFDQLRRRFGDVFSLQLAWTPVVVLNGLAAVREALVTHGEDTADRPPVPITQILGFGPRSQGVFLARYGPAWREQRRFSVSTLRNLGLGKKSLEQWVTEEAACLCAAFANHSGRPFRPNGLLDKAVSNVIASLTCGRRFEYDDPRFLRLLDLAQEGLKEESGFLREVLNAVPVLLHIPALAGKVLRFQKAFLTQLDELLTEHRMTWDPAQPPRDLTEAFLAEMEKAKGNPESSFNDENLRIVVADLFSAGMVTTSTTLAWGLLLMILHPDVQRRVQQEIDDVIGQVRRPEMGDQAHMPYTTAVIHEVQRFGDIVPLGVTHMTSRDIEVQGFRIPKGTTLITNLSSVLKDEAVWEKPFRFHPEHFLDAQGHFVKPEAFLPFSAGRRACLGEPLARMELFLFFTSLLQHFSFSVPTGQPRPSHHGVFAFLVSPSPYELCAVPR
smiles,measurement,setting,value
CC(C)(C)S(=O)(=O)c1cnc2c(-c3ccc(Cl)cc3)cnn2c1N,EC50,[1],10.3 µM (active)
same,EC50,[2],11.8 µM (active)
Cc1ccccc1Cn1cc(NC(=O)c2noc(C(C)C)c2[N+](=O)[O-])cn1,EC50,[3],> 120 µM (not active)
same,EC50,[4],> 120 µM (not active)
same,IC50,cells,7.8 µM (active)
same,EC50,[5],> 120 µM (not active)
COc1ccccc1CC(=O)O/N=C(\N)Cc1cccc2ccccc12,AC50,Cytochrome P450 2C9,inconclusive
COc1ccc(-c2noc(CCC(=O)NCCCN3CCC(Cc4ccccc4)CC3)n2)cc1,AC50,[6],4.03 µM (active)
same,AC50,[7],30.4 µM (active)
same,IC50,[8],> 20 µM (inactive)
same,AC50,[9],20.7 µM (active)
same,EC50,BJ [10],> 150 µM (not active)
same,EC50,[11],18.5 µM (active)
same,EC50,BJ [12],23.2 µM (active)
same,EC50,BJ [13],> 150 µM (not active)
O=C(CCc1ccccc1)NNC(=O)C1CCCCC1,AC50,Cytochrome P450 2C9,inconclusive
COC(=O)c1ccccc1NC(=O)c1ccc(Cn2cc(Cl)cn2)o1,AC50,Cytochrome P450 3A4,10 µM (inconclusive)
same,AC50,Cytochrome P450 2C9,inconclusive
CCOC(=O)N1CCN(C(=O)CNC2CCCCCCC2)CC1,EC50,[14],16.7 µM (active)
same,EC50,[15],> 112 µM (not active)
CCc1ccc([C@@H]2CC=C(C(=O)O)[C@H](c3ccc(Cl)cc3)N2S(=O)(=O)c2ccc(C)cc2)cc1,AC50,[16],7.7 µM (active)
same,CC50,[17],11.6 µM (active)
same,IC50,Genome polyprotein,40.3 µM (active)
COC(=O)CC1=NN(c2ccccc2)C(=O)/C1=C\c1ccc(OC)cc1,IC50,Genome polyprotein,33.3 µM (active)
CSc1ncc(Cl)c(C(=O)C(C#N)c2nc3c(C)cc(C)cc3c(=O)[nH]2)n1 (stereo not given),IC50,Aminopeptidase N,84.5 µM (active)
CN(C)CCCNc1oc(/C=C/c2ccccc2)nc1C#N,IC50,Aminopeptidase N,45.3 µM (active)
CCCc1cc2c(cc1NC(=O)c1ccccc1Cl)OCO2,AC50,Cytochrome P450 2D6,28.2 µM (inconclusive)
same,AC50,Cytochrome P450 2C9,inconclusive
COc1cccc(/C=C(/C#N)c2ccc(F)cc2)c1OCc1cccc(C(=O)O)c1,IC50,Aminopeptidase N,43.6 µM (active)
CCOC(=O)CNC(=O)N1c2ccccc2Sc2ccccc21,IC50,cells,1.95 µM (active)
CCCn1c(-c2ccc[nH]c2=O)nc2cc(C)c(C)cc21,IC50,Aminopeptidase N,23.8 µM (active)
O=C(O)c1ccccc1NS(=O)(=O)c1cccc(NS(=O)(=O)c2cc(Br)ccc2Br)c1,IC50,Genome polyprotein,28.3 µM (active)
COc1ccc(-c2[nH]c(-c3ccc4c(c3)OCO4)nc2-c2ccccc2)cc1,EC50,[1],15.9 µM (active)
same,EC50,[2],20.7 µM (active)
COc1cc(/C=C/C(=O)O)cc(S(=O)(=O)NCc2ccc3c(c2)OCO3)c1OC,IC50,Aminopeptidase N,81.9 µM (active)
